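Cultured in 96-well plates, cells were exposed to test compound for 48 hours across five concentrations. GI50 = concentration required for 50% inhibition of growth.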 Active and inactive are the calls of the source. Rule as the data show it: active = GI50 up to about 1.1 µM and inactive = higher.
Experiments:
Experiment in all cases: growth of human tumour cells (NCI), 48 h
[1] = test system: OVCAR-4
[2] = test system: CAKI-1
[3] = test system: SNB-75
[4] = test system: SF-539
[5] = test system: A498
[6] = test system: SN12C
[7] = test system: SK-OV-3
[8] = test system: HCT-15
[9] = test system: UACC-257
[10] = test system: SF-295
[11] = test system: OVCAR-8
[12] = test system: HOP-62
[13] = test system: SR
[14] = test system: ACHN
[15] = test system: OVCAR-5

| Compound | GI50 [1] | GI50 [2] | GI50 [3] | GI50 [4] | GI50 [5] | GI50 [6] | GI50 [7] | GI50 [8] | GI50 [9] | GI50 [10] | GI50 [11] | GI50 [12] | GI50 [13] | GI50 [14] | GI50 [15] |
| --- | --- | --- | --- | --- | --- | --- | --- | --- | --- | --- | --- | --- | --- | --- | --- |
| COC(=O)[C@H]1CC(=O)C=C2CCCC21 (some centres not stated) | > 100 µM (inactive) | > 100 µM (inactive) | > 100 µM (inactive) | > 100 µM (inactive) | > 100 µM (inactive) | > 100 µM (inactive) | > 100 µM (inactive) | > 100 µM | > 100 µM (inactive) | > 100 µM (inactive) | > 100 µM (inactive) | > 100 µM (inactive) |  |  |  |
| O=C(N/N=C1/C(=O)N(c2ccc(Cl)cc2Cl)C(=O)C(=O)C1c1nc2ccccc2o1)c1ccccc1O (configuration not stated) |  | 34.8 µM (inactive) | 43.3 µM (inactive) | 29.4 µM (inactive) | 31.3 µM (inactive) | 33.8 µM (inactive) | 33 µM (inactive) | 37.8 µM |  |  | 60.4 µM (inactive) | 28.7 µM (inactive) | 47.2 µM (inactive) | 37.5 µM (inactive) | > 100 µM (inactive) |
| C1=NN(Cc2ccccc2)C(N(Cc2ccccc2)Cc2ccccc2)N1 (configuration not stated) | 15.8 µM (inactive) | 14.4 µM (inactive) | 23.1 µM (inactive) | 15.4 µM (inactive) | 17.7 µM (inactive) | 17 µM (inactive) | 15.4 µM (inactive) | 16.1 µM | 16.7 µM (inactive) | 14.5 µM (inactive) | 23.9 µM (inactive) | 18.2 µM (inactive) |  | 19.7 µM (inactive) | 13 µM (inactive) |
| C=CCC1(C)CCCCC1(O)C[S+]([O-])c1ccccc1 (configuration not stated) | > 100 µM (inactive) | > 100 µM (inactive) | > 100 µM (inactive) | > 100 µM (inactive) | > 100 µM (inactive) | > 100 µM (inactive) | > 100 µM (inactive) | > 100 µM | > 100 µM (inactive) | > 100 µM (inactive) | > 100 µM (inactive) | > 100 µM (inactive) | > 100 µM (inactive) | > 100 µM (inactive) | > 100 µM (inactive) |
| COC(=O)C1(C)C=C(Nc2ccccc2)C(=O)N1c1ccccc1 (configuration not stated) | > 100 µM (inactive) | > 100 µM (inactive) |  | > 100 µM (inactive) |  | > 100 µM (inactive) | > 100 µM (inactive) |  | > 100 µM (inactive) | > 100 µM (inactive) | > 100 µM (inactive) | > 100 µM (inactive) |  | > 100 µM (inactive) | > 100 µM (inactive) |
| O=C1C[C@@H]2C(COC(=O)c3ccccc3)N(OCc3ccccc3)C[C@@H]2O1 (some centres not stated) | > 100 µM (inactive) |  | > 100 µM (inactive) | > 100 µM (inactive) | > 100 µM (inactive) | > 100 µM (inactive) | > 100 µM (inactive) | > 100 µM | > 100 µM (inactive) |  | > 100 µM (inactive) | > 100 µM (inactive) | > 100 µM (inactive) | > 100 µM (inactive) | > 100 µM (inactive) |
| O=[N+]([O-])c1cccc(Nc2nc(Cl)nc(Cl)n2)c1 | 34.4 µM (inactive) | > 100 µM (inactive) | > 100 µM (inactive) | > 100 µM (inactive) |  | > 100 µM (inactive) | > 100 µM (inactive) | > 100 µM | > 100 µM (inactive) | > 100 µM (inactive) | > 100 µM (inactive) | > 100 µM (inactive) | > 100 µM (inactive) | > 100 µM (inactive) | > 100 µM (inactive) |
| O=C(NC1CCCCC1)NS(=O)(=O)c1ccc2c(c1)CCC2 [GLYHEXAMIDE] |  |  | > 100 µM (inactive) | > 100 µM (inactive) |  | > 100 µM (inactive) | > 100 µM (inactive) | > 100 µM | > 100 µM (inactive) | > 100 µM (inactive) | > 100 µM (inactive) |  | > 100 µM (inactive) | > 100 µM (inactive) | > 100 µM (inactive) |
| N#CCCN(CCC#N)c1ccc(/C=N\c2nc(-c3ccccc3)cs2)cc1 | 63.4 µM (inactive) | > 100 µM (inactive) | 29.8 µM (inactive) | > 100 µM (inactive) | > 100 µM (inactive) | > 100 µM (inactive) | > 100 µM (inactive) | > 100 µM | > 100 µM (inactive) | 45.7 µM (inactive) | > 100 µM (inactive) | 84.3 µM (inactive) |  | > 100 µM (inactive) | > 100 µM (inactive) |
| Oc1ccc2c(c1)CC[N+]1=C2CCC2CCCC21 (configuration not stated) [QUINDONIUM BROMIDE] | > 100 µM (inactive) | > 100 µM (inactive) | > 100 µM (inactive) | > 100 µM (inactive) |  | > 100 µM (inactive) | > 100 µM (inactive) | > 100 µM |  | > 100 µM (inactive) | > 100 µM (inactive) |  |  | > 100 µM (inactive) | > 100 µM (inactive) |

From ChEMBL document CHEMBL1201862, “PubChem BioAssay data set” (2004)
